Reference: ChEMBL document CHEMBL1201862, “PubChem BioAssay data set” (2004)
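48-hour exposure; five concentrations; linearly interpolated endpoints. At the GI50, growth is halved.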 Activity calls are given as the source filed them. Cut-off read from the data, not from the text of the source: active = GI50 up to about 1.1 µM and inactive = higher.

How the values were obtained:
Test in all cases: inhibition of tumour cell growth, NCI panel, 48 h
786-0 = system: 786-0
HOP-18 = system: HOP-18
MDA-N = system: MDA-N
SNB-75 = system: SNB-75
SW-620 = system: SW-620
OVCAR-3 = system: OVCAR-3
KM-20L2 = system: KM-20L2
UACC-62 = system: UACC-62
OVCAR-8 = system: OVCAR-8
SK-OV-3 = system: SK-OV-3
MOLT-4 = system: MOLT-4
DU-145 = system: DU-145
SR = system: SR
MDA-MB-231 = system: MDA-MB-231
UO-31 = system: UO-31
SNB-19 = system: SNB-19
NCI-H23 = system: NCI-H23
OVCAR-4 = system: OVCAR-4
M14 = system: M14
SK-MEL-2 = system: SK-MEL-2
RXF 393 = system: RXF 393
Hs-578T = system: Hs-578T
BT-549 = system: BT-549
SF-539 = system: SF-539
HCT-15 = system: HCT-15
HL-60 = system: HL-60
NCI-H522 = system: NCI-H522
SF-295 = system: SF-295
CCRF-CEM = system: CCRF-CEM
SF-268 = system: SF-268
A549 = system: A549
NCI/ADR-RES = system: NCI/ADR-RES
EKVX = system: EKVX
OVCAR-5 = system: OVCAR-5
LOX IMVI = system: LOX IMVI
HCT-116 = system: HCT-116
HCC 2998 = system: HCC 2998
KM12 = system: KM12
IGROV-1 = system: IGROV-1
UACC-257 = system: UACC-257
SK-MEL-28 = system: SK-MEL-28
SK-MEL-5 = system: SK-MEL-5
LXFL 529 = system: LXFL 529
T47D = system: T47D
HOP-92 = system: HOP-92
MCF7 = system: MCF7
A498 = system: A498
DMS-273 = system: DMS-273
ACHN = system: ACHN
MDA-MB-435 = system: MDA-MB-435
SNB-78 = system: SNB-78
M19-MEL = system: M19-MEL
Malme-3M = system: Malme-3M
HOP-62 = system: HOP-62
COLO 205 = system: COLO 205
DLD-1 = system: DLD-1
CAKI-1 = system: CAKI-1
TK-10 = system: TK-10
DMS-114 = system: DMS-114
RPMI-8226 = system: RPMI-8226
U-251 = system: U-251
PC-3 = system: PC-3
NCI-H226 = system: NCI-H226
NCI-H460 = system: NCI-H460
K562 = system: K562
SN12C = system: SN12C
HT-29 = system: HT-29

Measured: GI50

N#CC(NNC(=O)c1ccccc1O)c1c(O)ccc2ccccc12 (configuration not stated)
2.89 µM: HCT-15
inactive: 786-0 4.56 µM | HOP-18 2.04 µM | MDA-N 5.16 µM | SNB-75 7.31 µM | SW-620 4.3 µM | OVCAR-3 2.54 µM | KM-20L2 17.9 µM | UACC-62 2.61 µM | OVCAR-8 3.16 µM | SK-OV-3 4.68 µM | MOLT-4 2.26 µM | DU-145 2.54 µM | SR 1.46 µM | MDA-MB-231 3.2 µM | UO-31 2.92 µM | SNB-19 13.6 µM | NCI-H23 4.65 µM | OVCAR-4 2.58 µM | M14 3.46 µM | SK-MEL-2 3.72 µM | RXF 393 2.75 µM | Hs-578T 17.3 µM | BT-549 7.11 µM | SF-539 4.63 µM | NCI-H522 4.42 µM | SF-295 4.78 µM | SF-268 3.24 µM | A549 2.94 µM | NCI/ADR-RES 3.44 µM | EKVX 5.66 µM | OVCAR-5 4.38 µM | HCT-116 2.84 µM | HCC 2998 9.55 µM | KM12 4.84 µM | IGROV-1 4.4 µM | UACC-257 3.67 µM | SK-MEL-28 9.33 µM | SK-MEL-5 2.67 µM | LXFL 529 3.76 µM | T47D 2.96 µM | HOP-92 5.71 µM | MCF7 4.5 µM | A498 34.7 µM | DMS-273 2.52 µM | ACHN 5.04 µM | MDA-MB-435 8.53 µM | SNB-78 19.8 µM | M19-MEL 1.78 µM | Malme-3M 6.27 µM | HOP-62 3.33 µM | COLO 205 13.2 µM | DLD-1 2.06 µM | CAKI-1 4.18 µM | TK-10 4.7 µM | DMS-114 1.87 µM | RPMI-8226 3.48 µM | U-251 3.79 µM | PC-3 4.03 µM | NCI-H226 3.71 µM | NCI-H460 2.99 µM | K562 2.9 µM | SN12C 7.64 µM | HT-29 20.3 µM
active: HL-60 0.713 µM | CCRF-CEM 0.962 µM | LOX IMVI 0.877 µM
